Where “and” joins values, the source holds several entries; their conditions need not be identical. Equal values may be shown once. Read-outs that look alike come from different tables or passages of the source.
What was measured:
[1] = target: T1, VEGFR-2 (Homo sapiens, UniProt P35968); assay: cell-based; assay type: cell-based; conditions: for inhibition at 10 µM: HCT-116, HCT116; for VEGFR-2 pg/mL ± SEM HCT116: at 10 μM, control 317.80 ± 3.5
T1 construct: endogenous in cells; host or cells: HCT116, PaCa2, MCF7 (human cancer cell lines, ATCC origin)

[2] = target: T2, COX-1 (Ovis aries, UniProt P05979); assay: biochemical; conditions: 3 replicates, read-out: % Inhibition of COX-1 ± SEM
T2 construct: purchased BioVision incorporated USA K548–100
T2 sequence (P05979 25-600): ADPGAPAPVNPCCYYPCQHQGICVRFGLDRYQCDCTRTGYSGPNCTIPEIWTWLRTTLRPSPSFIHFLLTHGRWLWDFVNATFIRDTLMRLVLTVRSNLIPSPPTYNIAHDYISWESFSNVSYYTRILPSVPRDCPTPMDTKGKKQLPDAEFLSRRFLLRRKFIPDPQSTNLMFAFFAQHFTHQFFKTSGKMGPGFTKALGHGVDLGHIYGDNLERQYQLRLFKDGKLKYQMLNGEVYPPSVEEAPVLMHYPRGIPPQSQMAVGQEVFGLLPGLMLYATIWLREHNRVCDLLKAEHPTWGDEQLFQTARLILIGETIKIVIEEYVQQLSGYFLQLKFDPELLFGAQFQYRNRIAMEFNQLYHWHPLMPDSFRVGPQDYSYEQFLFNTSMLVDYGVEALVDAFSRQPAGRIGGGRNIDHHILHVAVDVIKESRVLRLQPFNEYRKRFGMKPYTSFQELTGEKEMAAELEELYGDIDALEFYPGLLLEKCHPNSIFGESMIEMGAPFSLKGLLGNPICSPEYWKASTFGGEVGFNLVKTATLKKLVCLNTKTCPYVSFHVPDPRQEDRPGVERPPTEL

[3] = target: T1, VEGFR-2; assay: cell-based; assay type: cell-based; conditions: for inhibition at 10 µM: MCF7; for VEGFR-2 pg/mL ± SEM MCF7: at 10 μM, control 258.70 ± 2.3
[4] = test system: TNF-α; assay: TNF-α inhibitory properties (ELISA), MCF7 cell lysate; assay type: cell-based, human; conditions: at 10 μM; for TNF-α pg/mL (± SEM) MCF7: control 83.26 ± 1.1
[5] = test system: A549 (lung) cancer cell line; assay: 2D-monolayer antiproliferation (MTT) against A549; assay type: cell-based, human; conditions: for IC50: Homo sapiens, MTT, 72 h incubation, A549 lung, read-out: IC50, μM ± SEM A549; for SI (selectivity index) A549: IC50 of RPE1 normal cell/IC50 of A549
[6] = target: T1, VEGFR-2; assay: cell-based; assay type: cell-based; conditions: for inhibition at 10 µM: PaCa-2, PaCa2; for VEGFR-2 pg/mL ± SEM PaCa2: at 10 μM, control 326.80 ± 1.9
[7] = test system: MCF7 (breast) cancer cell line; assay: 2D-monolayer antiproliferation (MTT) against MCF7; assay type: cell-based, human; conditions: for IC50: Homo sapiens, MTT, 72 h incubation, MCF7 breast, read-out: IC50, μM ± SEM MCF7; for SI (selectivity index) MCF7: IC50 of RPE1 normal cell/IC50 of MCF7
[8] = test system: RPE1 (normal human immortalized retinal pigment epithelial cell line); assay: cells; assay type: cell-based; conditions: Homo sapiens, RPE-1; MTT, normal RPE1 cell; read-out: IC50, μM ± SEM RPE1
[9] = test system: TNF-α; assay: TNF-α inhibitory properties (ELISA), HCT116 cell lysate; assay type: cell-based, human; conditions: at 10 μM; for TNF-α pg/mL (± SEM) HCT116: control 95.74 ± 0.5
[10] = test system: HCT116 (colon) cancer cell line; assay: 2D-monolayer antiproliferation (MTT) against HCT116; assay type: cell-based, human; conditions: for IC50: Homo sapiens, HCT-116; for SI (selectivity index) HCT116: IC50 of RPE1 normal cell/IC50 of HCT116
[11] = test system: PaCa2 (pancreatic) cancer cell line; assay: 2D-monolayer antiproliferation (MTT) against PaCa2; assay type: cell-based, human; conditions: for 1/(observed property): 1/observed IC50 (μM), PaCa2; for IC50: Homo sapiens, PaCa-2, MTT, 72 h incubation, PaCa2 pancreatic, read-out: IC50, μM ± SEM PaCa2; for SI (selectivity index) PaCa2: IC50 of RPE1 normal cell/IC50 of PaCa2
[12] = test system: HCT116 3D-spheroid; conditions: HCT116 3D-spheroid at 50 μM, relative to control
[13] = target: T3, COX-2 (Homo sapiens, UniProt P35354); assay: biochemical; conditions: for inhibition at 10 µM: 3 replicates, read-out: % Inhibition of COX-2 ± SEM
T3 construct: purchased BioVision incorporated USA K548–100
T3 sequence (P35354 18-604): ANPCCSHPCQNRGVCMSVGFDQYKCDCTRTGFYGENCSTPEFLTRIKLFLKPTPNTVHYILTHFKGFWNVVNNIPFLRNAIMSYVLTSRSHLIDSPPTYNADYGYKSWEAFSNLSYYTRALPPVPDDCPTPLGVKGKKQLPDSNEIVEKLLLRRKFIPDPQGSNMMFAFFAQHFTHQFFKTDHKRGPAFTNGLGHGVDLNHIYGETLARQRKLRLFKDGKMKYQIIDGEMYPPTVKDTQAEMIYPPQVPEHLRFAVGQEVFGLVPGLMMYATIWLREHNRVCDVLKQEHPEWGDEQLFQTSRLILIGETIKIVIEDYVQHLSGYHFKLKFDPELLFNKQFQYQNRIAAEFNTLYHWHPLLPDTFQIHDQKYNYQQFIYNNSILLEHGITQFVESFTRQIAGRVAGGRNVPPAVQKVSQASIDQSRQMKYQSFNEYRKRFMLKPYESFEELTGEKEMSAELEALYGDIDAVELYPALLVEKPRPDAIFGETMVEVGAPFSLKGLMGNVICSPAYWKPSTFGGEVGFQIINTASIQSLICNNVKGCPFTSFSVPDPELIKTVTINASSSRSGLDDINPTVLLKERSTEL

[14] = test system: TNF-α; assay: TNF-α inhibitory properties (ELISA), PaCa2 cell lysate; assay type: cell-based, human; conditions: at 10 μM; for TNF-α pg/mL (± SEM) PaCa2: control 111.8 ± 2.0
[15] = MTT, 72 h incubation, HCT116 colon, read-out: IC50, μM ± SEM HCT116
[16] = log of observed IC50 (μM), HCT116, read-out: Log(observed property) (converted)

T1 sequence (P35968 20-1356): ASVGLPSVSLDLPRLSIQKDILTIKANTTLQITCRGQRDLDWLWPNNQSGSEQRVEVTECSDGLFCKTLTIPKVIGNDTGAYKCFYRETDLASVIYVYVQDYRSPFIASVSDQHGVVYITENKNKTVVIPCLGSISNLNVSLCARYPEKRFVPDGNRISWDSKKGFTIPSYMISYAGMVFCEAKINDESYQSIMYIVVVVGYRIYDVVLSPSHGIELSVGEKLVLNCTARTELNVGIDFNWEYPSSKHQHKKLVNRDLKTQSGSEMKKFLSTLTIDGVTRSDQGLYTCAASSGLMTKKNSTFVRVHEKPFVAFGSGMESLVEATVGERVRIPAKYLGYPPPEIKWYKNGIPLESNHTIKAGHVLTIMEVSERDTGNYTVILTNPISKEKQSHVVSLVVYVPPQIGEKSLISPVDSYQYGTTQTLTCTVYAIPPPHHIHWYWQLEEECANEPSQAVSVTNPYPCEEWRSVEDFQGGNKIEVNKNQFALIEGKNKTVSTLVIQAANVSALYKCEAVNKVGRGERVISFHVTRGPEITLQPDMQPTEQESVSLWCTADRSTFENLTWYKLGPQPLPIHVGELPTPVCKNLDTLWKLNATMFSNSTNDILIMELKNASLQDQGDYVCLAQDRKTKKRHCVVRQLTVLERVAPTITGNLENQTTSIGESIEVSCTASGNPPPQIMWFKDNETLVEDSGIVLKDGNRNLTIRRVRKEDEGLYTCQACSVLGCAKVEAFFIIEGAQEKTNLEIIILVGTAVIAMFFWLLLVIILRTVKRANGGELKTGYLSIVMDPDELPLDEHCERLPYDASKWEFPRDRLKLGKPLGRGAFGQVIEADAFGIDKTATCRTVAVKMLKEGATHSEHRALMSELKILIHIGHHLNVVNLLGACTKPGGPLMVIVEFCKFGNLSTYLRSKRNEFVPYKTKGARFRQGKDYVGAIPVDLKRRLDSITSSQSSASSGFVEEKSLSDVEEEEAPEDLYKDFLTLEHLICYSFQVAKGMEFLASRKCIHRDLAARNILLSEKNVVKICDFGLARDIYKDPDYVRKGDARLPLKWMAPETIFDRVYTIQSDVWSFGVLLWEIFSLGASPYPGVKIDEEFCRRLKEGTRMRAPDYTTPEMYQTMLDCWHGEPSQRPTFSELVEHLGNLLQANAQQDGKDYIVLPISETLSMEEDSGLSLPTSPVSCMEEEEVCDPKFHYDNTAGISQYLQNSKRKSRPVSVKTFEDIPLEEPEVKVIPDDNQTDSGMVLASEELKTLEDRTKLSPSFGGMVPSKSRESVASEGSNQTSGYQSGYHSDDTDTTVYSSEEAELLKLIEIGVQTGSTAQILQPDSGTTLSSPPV

SMILES: CCOP(=O)(OCC)N1C/C(=C\c2ccccc2)C(=O)C2(C1)C(c1ccccc1)CN(C)C21C(=O)Nc2ccc(C)cc21 (stereo not drawn) [Compound 17d, Diethyl (E)-(5′′-benzylidene-1′,5-dimethyl-2,4′′-dioxo-4′-phenyldispiro[indoline-3,2′-pyrrolidine-3′,3′′-piperidin]-1′′-yl)phosphonate]
- inhibition at 10 µM [1]: 72.5%
- VEGFR-2 pg/mL ± SEM HCT116 [1]: 87.40 ± 1.9 pg/mL
- inhibition at 10 µM [2]: 51.8 ± 2.2%
- inhibition at 10 µM [3]: 71.9%
- VEGFR-2 pg/mL ± SEM MCF7 [3]: 72.80 ± 1.2 pg/mL
- TNF-α % inhibition MCF7 [4]: 0.1%
- TNF-α pg/mL (± SEM) MCF7 [4]: 83.2 ± 4.5 pg/mL
- IC50 [5]: 14.6 ± 0.27 µM
- SI (selectivity index) A549 [5]: 1.2
- inhibition at 10 µM [6]: 83.7%
- VEGFR-2 pg/mL ± SEM PaCa2 [6]: 53.42 ± 0.7 pg/mL
- IC50 [7]: 5.78 ± 0.13 µM
- SI (selectivity index) MCF7 [7]: 3.1
- IC50 [8]: 17.9 ± 0.945 µM
- TNF-α % inhibition HCT116 [9]: 1.0%
- TNF-α pg/mL (± SEM) HCT116 [9]: 94.80 ± 2.5 pg/mL
- IC50 [10, 15]: 9.278 ± 0.084 µM
- IC50 [10, 16]: 9.28 µM
- SI (selectivity index) HCT116 [10]: 1.9
- 1/(observed property) [11]: 0.06423
- IC50 [11]: 15.6 ± 0.329 µM
- SI (selectivity index) PaCa2 [11]: 1.2
- %CT (± SEM), percentage cytotoxicity [12]: 64.1% and 64.1 ± 7.0%
- inhibition at 10 µM [13]: 56.4 ± 1.9%
- SI (selectivity index, COX-2/COX-1) ([13]; at 10 μM): 0.82
- TNF-α % inhibition PaCa2 [14]: 7.2%
- TNF-α pg/mL (± SEM) PaCa2 [14]: 103.7 ± 4.2 pg/mL

SMILES: CCOP(=O)(OCC)N1C/C(=C\c2ccc(Cl)cc2)C(=O)C2(C1)C(c1ccc(Cl)cc1)CN(C)C21C(=O)Nc2ccc(C)cc21 (stereo not drawn) [Compound 17k, Diethyl (E)-(5′′-(4-chlorobenzylidene)-4′-(4-chlorophenyl)-1′,5-dimethyl-2,4′′-dioxodispiro[indoline-3,2′-pyrrolidine-3′,3′′-piperidin]-1′′-yl)phosphonate]
- inhibition at 10 µM [1]: 78.7%
- VEGFR-2 pg/mL ± SEM HCT116 [1]: 67.80 ± 1.3 pg/mL
- inhibition at 10 µM [2]: 57.7 ± 1%
- inhibition at 10 µM [3]: 66.6%
- VEGFR-2 pg/mL ± SEM MCF7 [3]: 86.40 ± 0.5 pg/mL
- TNF-α % inhibition MCF7 [4]: 72.6%
- TNF-α pg/mL (± SEM) MCF7 [4]: 22.85 ± 1.8 pg/mL
- IC50 [5]: 6.47 ± 0.385 µM
- SI (selectivity index) A549 [5]: 1.3
- inhibition at 10 µM [6]: 76.6%
- VEGFR-2 pg/mL ± SEM PaCa2 [6]: 76.40 ± 0.9 pg/mL
- IC50 [7]: 4.98 ± 0.095 µM
- SI (selectivity index) MCF7 [7]: 1.6
- IC50 [8]: 8.15 ± 0.507 µM
- TNF-α pg/mL (± SEM) HCT116 [9]: 26.48 ± 1.5 pg/mL
- IC50 [10, 15]: 3.281 ± 0.022 µM
- IC50 [10, 16]: 3.28 µM
- SI (selectivity index) HCT116 [10]: 2.5
- 1/(observed property) [11]: 0.1502
- IC50 [11]: 6.66 ± 0.095 µM
- SI (selectivity index) PaCa2 [11]: 1.2
- %CT (± SEM), percentage cytotoxicity [12]: 53.1% and 53.1 ± 2.2%
- inhibition at 10 µM [13]: 55 ± 1.6%
- TNF-α pg/mL (± SEM) PaCa2 [14]: 24.3 ± 1.4 pg/mL
